In ChEMBL document CHEMBL1201862, “PubChem BioAssay data set” (2004):
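Cultured in 96-well plates, cells were exposed to test compound for 48 hours across five concentrations. GI50 = concentration required for 50% inhibition of growth.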 The source made the active and inactive calls. No stated cut-off is given here; in the data, active = GI50 up to about 1.1 µM and inactive = higher.

Key:
Assay in all cases: DTP human tumour cell line panel, 48 h
[1] = system: 786-0
[2] = system: NCI-H522
[3] = system: IGROV-1
[4] = system: SW-620
[5] = system: SF-268
[6] = system: MDA-N
[7] = system: Malme-3M
[8] = system: NCI-H23
[9] = system: U-251
[10] = system: M14
[11] = system: OVCAR-3
[12] = system: LOX IMVI
[13] = system: SK-MEL-5
[14] = system: MDA-MB-231
[15] = system: NCI-H226
[16] = system: Hs-578T
[17] = system: MOLT-4
[18] = system: T47D
[19] = system: SF-295
[20] = system: K562

Measured: GI50

COC(=O)/C=C(\C(=O)OC)C1C(=O)Oc2c(C)c(=O)c3ccccc3n21 (stereo not given)
inactive: [1] > 100 µM | [2] > 100 µM | [3] > 100 µM | [4] > 100 µM | [5] > 100 µM | [6] > 100 µM | [7] > 100 µM | [8] > 100 µM | [9] > 100 µM | [10] > 100 µM | [11] > 100 µM | [12] > 100 µM | [13] > 100 µM | [14] > 100 µM | [15] > 100 µM | [16] > 100 µM | [17] > 100 µM | [18] > 100 µM | [19] > 100 µM | [20] > 100 µM

COC(=O)/C=C\[C@H]1[C@H](C)N1S(=O)(=O)c1ccc(C)cc1 (stereo not given in full)
inactive: [1] > 100 µM | [2] 20.4 µM | [3] > 100 µM | [4] > 100 µM | [5] > 100 µM | [6] > 100 µM | [7] > 100 µM | [8] > 100 µM | [9] > 100 µM | [10] > 100 µM | [11] > 100 µM | [12] > 100 µM | [13] > 100 µM | [14] > 100 µM | [15] > 100 µM | [16] > 100 µM | [17] > 100 µM | [18] > 100 µM | [19] > 100 µM | [20] > 100 µM

Cc1cc(CS(=O)(=O)/C=C/c2ccccc2[N+](=O)[O-])c(CS(=O)(=O)/C=C/c2ccccc2[N+](=O)[O-])cc1C
inactive: [1] 12.5 µM | [2] 23.7 µM | [3] 30.8 µM | [4] > 54.2 µM | [5] 25.4 µM | [6] > 27.9 µM | [7] 28 µM | [8] 17.7 µM | [9] 19.6 µM | [10] > 69.8 µM | [11] 49.1 µM | [12] 24.3 µM | [13] 37.2 µM | [14] 16.4 µM | [15] 19 µM | [16] 3.44 µM | [17] 70.1 µM | [18] > 100 µM | [19] 16.9 µM | [20] 35.3 µM
